# Where “and” joins values, the source holds several entries; their conditions need not be identical. Equal entries are not always repeated. Structures can show the parent of a compound that is named as a salt. Where two headings read alike, the source gives them in different places.
# Key:
# Experiment in all cases: qHTS cell viability (CellTiter-Glo, 72 h; primary and follow-up small molecule screen)
# Assay type in all cases: cell-based, human
# MCC13 cells (VN-MCC) = system: MCC13 cells (VN-MCC)
# MCC26 cells (VN-MCC) = system: MCC26 cells (VN-MCC)
# UISO cells (VN-MCC) = system: UISO cells (VN-MCC)
# WAGA cells (VP-MCC) = system: WAGA cells (VP-MCC)
# MKL-1 cells (VP-MCC) = system: MKL-1 cells (VP-MCC)
# MKL-2 cells (VP-MCC) = system: MKL-2 cells (VP-MCC)
# [1] = follow-up screen, MCC13, replicate 1
# [2] = follow-up screen, MCC13, replicate 2
# [3] = follow-up screen, MCC13, replicate 3
# [4] = follow-up screen, MCC26, replicate 1
# [5] = follow-up screen, MCC26, replicate 2
# [6] = follow-up screen, MCC26, replicate 3
# [7] = follow-up screen, UISO, replicate 1
# [8] = follow-up screen, UISO, replicate 2
# [9] = follow-up screen, UISO, replicate 3
# [10] = follow-up screen, WAGA, replicate 1
# [11] = follow-up screen, WAGA, replicate 2
# [12] = follow-up screen, WAGA, replicate 3
# [13] = follow-up screen, MKL-1, replicate 1
# [14] = follow-up screen, MKL-1, replicate 2
# [15] = follow-up screen, MKL-1, replicate 3
# [16] = follow-up screen, MKL-2, replicate 1
# [17] = follow-up screen, MKL-2, replicate 2
# [18] = follow-up screen, MKL-2, replicate 3
SMILES,Area under the dose-response curve (AUC) MCC13 Replicate 1 (MCC13 cells (VN-MCC); [1]),Area under the dose-response curve (AUC) MCC13 Replicate 2 (MCC13 cells (VN-MCC); [2]),Area under the dose-response curve (AUC) MCC13 Replicate 3 (MCC13 cells (VN-MCC); [3]),Area under the dose-response curve (AUC) MCC26 Replicate 1 (MCC26 cells (VN-MCC); [4]),Area under the dose-response curve (AUC) MCC26 Replicate 2 (MCC26 cells (VN-MCC); [5]),Area under the dose-response curve (AUC) MCC26 Replicate 3 (MCC26 cells (VN-MCC); [6]),Area under the dose-response curve (AUC) UISO Replicate 1 (UISO cells (VN-MCC); [7]),Area under the dose-response curve (AUC) UISO Replicate 2 (UISO cells (VN-MCC); [8]),Area under the dose-response curve (AUC) UISO Replicate 3 (UISO cells (VN-MCC); [9]),Area under the dose-response curve (AUC) WAGA Replicate 1 (WAGA cells (VP-MCC); [10]),Area under the dose-response curve (AUC) WAGA Replicate 2 (WAGA cells (VP-MCC); [11]),Area under the dose-response curve (AUC) WAGA Replicate 3 (WAGA cells (VP-MCC); [12]),Area under the dose-response curve (AUC) MKL-1 Replicate 1 (MKL-1 cells (VP-MCC); [13]),Area under the dose-response curve (AUC) MKL-1 Replicate 2 (MKL-1 cells (VP-MCC); [14]),Area under the dose-response curve (AUC) MKL-1 Replicate 3 (MKL-1 cells (VP-MCC); [15]),Area under the dose-response curve (AUC) MKL-2 Replicate 1 (MKL-2 cells (VP-MCC); [16]),Area under the dose-response curve (AUC) MKL-2 Replicate 2 (MKL-2 cells (VP-MCC); [17]),Area under the dose-response curve (AUC) MKL-2 Replicate 3 (MKL-2 cells (VP-MCC); [18]),Area under the dose-response curve (AUC) MCC13 Replicate 1 (MCC13 cells (VN-MCC)),Area under the dose-response curve (AUC) MCC13 Replicate 2 (MCC13 cells (VN-MCC)),further results
CC(=O)[C@]1(O)Cc2c(O)c3c(c(O)c2[C@@H](O[C@H]2C[C@H](N)[C@H](O)[C@H](C)O2)C1)C(=O)c1ccccc1C3=O [Idarubicin hydrochloride],321.5,353.4,356.2,293.6,292.8,227.6,184.7,180.9,186.4,205.3,258.0,233.3,222.7,242.3,233.3,203.6,200.3,265.0,,,
Oc1ccc(C2=Cc3ccc(O)cc3OC2)cc1 [Idronoxil],,,,,,,,,,,,,,,,,,,,,Area under the dose-response curve (AUC) (MCC13 cells (VN-MCC)): 415.6 and 455.9 and 456.9; Area under the dose-response curve (AUC) (MCC26 cells (VN-MCC)): 408.0 and 413.9 and 448.0; Area under the dose-response curve (AUC) (UISO cells (VN-MCC)): 422.5 and 447.1 and 401.0; Area under the dose-response curve (AUC) (WAGA cells (VP-MCC)): 395.2 and 366.0 and 386.6; Area under the dose-response curve (AUC) (MKL-1 cells (VP-MCC)): 285.6 and 303.3 and 334.8; Area under the dose-response curve (AUC) (MKL-2 cells (VP-MCC)): 351.5 and 302.3 and 331.4
CN(C(Cc1ccc(O[S+](=O)([O-])c2cccc3cnccc23)cc1)C(=O)N1CCN(c2ccccc2)CC1)[S+](=O)([O-])c1cccc2cnccc12 (stereo not drawn) [KN-62],505.2,474.1,504.9,447.5,438.4,461.3,473.7,471.7,409.6,521.5,471.3,468.9,492.0,481.7,479.5,465.4,466.3,472.5,,,
O=c1cc(-c2ccc(O)c(O)c2)oc2cc(O)cc(O)c12 [Luteolin],522.6,523.6,493.6,469.7,436.1,492.5,505.5,498.3,457.3,542.7,525.5,485.9,484.8,451.1,471.1,469.9,500.3,460.5,,,
CN(C)c1ccc(C(=C2C=CC(=[N+](C)C)C=C2)c2ccccc2)cc1.CN(C)c1ccc(C(=C2C=CC(=[N+](C)C)C=C2)c2ccccc2)cc1.O=C(O)C(=O)O.O=C([O-])C(=O)O.O=C([O-])C(=O)O [Malachite green oxalate],,,,,,,,,,,,,,,,,,,284.7,297.6,Area under the dose-response curve (AUC) MCC13 Replicate 3 (MCC13 cells (VN-MCC)): 312.3; Area under the dose-response curve (AUC) MCC26 Replicate 1 (MCC26 cells (VN-MCC)): 302.0; Area under the dose-response curve (AUC) MCC26 Replicate 2 (MCC26 cells (VN-MCC)): 333.8; Area under the dose-response curve (AUC) MCC26 Replicate 3 (MCC26 cells (VN-MCC)): 303.0; Area under the dose-response curve (AUC) UISO Replicate 1 (UISO cells (VN-MCC)): 285.6; Area under the dose-response curve (AUC) UISO Replicate 2 (UISO cells (VN-MCC)): 315.1; Area under the dose-response curve (AUC) UISO Replicate 3 (UISO cells (VN-MCC)): 271.1; Area under the dose-response curve (AUC) WAGA Replicate 1 (WAGA cells (VP-MCC)): 353.3; Area under the dose-response curve (AUC) WAGA Replicate 2 (WAGA cells (VP-MCC)): 347.4; Area under the dose-response curve (AUC) WAGA Replicate 3 (WAGA cells (VP-MCC)): 369.9; Area under the dose-response curve (AUC) MKL-1 Replicate 1 (MKL-1 cells (VP-MCC)): 266.3; Area under the dose-response curve (AUC) MKL-1 Replicate 2 (MKL-1 cells (VP-MCC)): 258.0; Area under the dose-response curve (AUC) MKL-1 Replicate 3 (MKL-1 cells (VP-MCC)): 280.5; Area under the dose-response curve (AUC) MKL-2 Replicate 1 (MKL-2 cells (VP-MCC)): 272.5; Area under the dose-response curve (AUC) MKL-2 Replicate 2 (MKL-2 cells (VP-MCC)): 267.6; Area under the dose-response curve (AUC) MKL-2 Replicate 3 (MKL-2 cells (VP-MCC)): 282.8
CN(C)c1ccc(C(=C2C=CC(=[N+](C)C)C=C2)c2ccc(N(C)C)cc2)cc1.[Cl-] [Methylrosaniline chloride],,,,,,,,,,,,,,,,,,,337.3,353.3,Area under the dose-response curve (AUC) MCC13 Replicate 3 (MCC13 cells (VN-MCC)): 322.2; Area under the dose-response curve (AUC) MCC26 Replicate 1 (MCC26 cells (VN-MCC)): 379.4; Area under the dose-response curve (AUC) MCC26 Replicate 2 (MCC26 cells (VN-MCC)): 341.7; Area under the dose-response curve (AUC) MCC26 Replicate 3 (MCC26 cells (VN-MCC)): 374.7; Area under the dose-response curve (AUC) UISO Replicate 1 (UISO cells (VN-MCC)): 320.8; Area under the dose-response curve (AUC) UISO Replicate 2 (UISO cells (VN-MCC)): 340.7; Area under the dose-response curve (AUC) UISO Replicate 3 (UISO cells (VN-MCC)): 296.1; Area under the dose-response curve (AUC) WAGA Replicate 1 (WAGA cells (VP-MCC)): 370.0; Area under the dose-response curve (AUC) WAGA Replicate 2 (WAGA cells (VP-MCC)): 348.5; Area under the dose-response curve (AUC) WAGA Replicate 3 (WAGA cells (VP-MCC)): 356.4; Area under the dose-response curve (AUC) MKL-1 Replicate 1 (MKL-1 cells (VP-MCC)): 316.1; Area under the dose-response curve (AUC) MKL-1 Replicate 2 (MKL-1 cells (VP-MCC)): 287.7; Area under the dose-response curve (AUC) MKL-1 Replicate 3 (MKL-1 cells (VP-MCC)): 301.6; Area under the dose-response curve (AUC) MKL-2 Replicate 1 (MKL-2 cells (VP-MCC)): 279.9; Area under the dose-response curve (AUC) MKL-2 Replicate 2 (MKL-2 cells (VP-MCC)): 290.8; Area under the dose-response curve (AUC) MKL-2 Replicate 3 (MKL-2 cells (VP-MCC)): 309.2

# From publication PMC11822212, “High-throughput screening identifies Aurora kinase B as a critical therapeutic target for Merkel cell carcinoma” (Nature Communications, 2025)
